Source: patent US11452725B2, “Chiral diaryl macrocycles and uses thereof” (TURNING POINT THERAPEUTICS, INC., priority 2015, dated 2022)

Test system: CD44
Experiment: CD44 expression by immunoblotting in H2228 cells
Format: cell-based, human
Details: 48 hours treatment, 0-1000 nM
Method: NSCLC cell line H2228 (harboring endogenous EML4-ALK fusion gene) was cultured in RPMI medium supplemented with 10% fetal bovine serum and 100 U/mL of penicillin/streptomycin. Ba/F3 and NIH3T3 cells stably expressing ROS1, or TRKA, or TRKB, or TRKC (WT or mutant) were cultured as mentioned above. […] Cells were collected after treatment and lysed in RIPA buffer (50 mM Tris, pH 7.4, 150 mM NaCl, 1% NP-40, 0.5% Deoxycholate, 0.1% SDS) supplemented with 10 mM EDTA, 1× Halt protease and phosphatase inhibitors (Thermo Scientific). Protein lysates (approximately 20 μg) was resolved on 4-12% Bolt Bis-Tris precasted gels with MES running buffer (Life Technologies), transferred to nitrocellulose membranes using Trans-Blot Turbo Transfer System (Bio-Rad) and detected with antibodies targeting phosphorylated phosphorylated ROS1 and total ROS1 (Cell Signaling Technology), phosphorylated TRK A/B (Cell Signaling Technology), total TRKA antibody (Santa Cruz Biotechnology), phosphorylated SRC Y416 (Cell Signaling Technology), total SRC (Cell Signaling Technology), phosphorylated FAK Y576/577 (Cell Signaling Technology), total FAK (Cell Signaling Technology), phosphorylated paxillin Y118 (Cell Signaling Technology), total paxillin (Cell Signaling Technology), phosphorylated EGFR and total EGFR, CD44, and Tubulin (Sigma). […]

C[C@@H](Oc1cc(-c2cnn(C3CCNCC3)c2)cnc1N)c1c(Cl)ccc(F)c1Cl [crizotinib, reference compound]
CD44 expression level: does not show down-regulation of CD44 expression
